Experimental findings from patent US10793563B2, “GCN2 inhibitors and uses thereof” (Merck Patent GmbH, priority 2018, dated 2020) are described below.

Some results are limits rather than exact numbers.

GCN2 kinase, sequence (Q9P2K8 whole entry): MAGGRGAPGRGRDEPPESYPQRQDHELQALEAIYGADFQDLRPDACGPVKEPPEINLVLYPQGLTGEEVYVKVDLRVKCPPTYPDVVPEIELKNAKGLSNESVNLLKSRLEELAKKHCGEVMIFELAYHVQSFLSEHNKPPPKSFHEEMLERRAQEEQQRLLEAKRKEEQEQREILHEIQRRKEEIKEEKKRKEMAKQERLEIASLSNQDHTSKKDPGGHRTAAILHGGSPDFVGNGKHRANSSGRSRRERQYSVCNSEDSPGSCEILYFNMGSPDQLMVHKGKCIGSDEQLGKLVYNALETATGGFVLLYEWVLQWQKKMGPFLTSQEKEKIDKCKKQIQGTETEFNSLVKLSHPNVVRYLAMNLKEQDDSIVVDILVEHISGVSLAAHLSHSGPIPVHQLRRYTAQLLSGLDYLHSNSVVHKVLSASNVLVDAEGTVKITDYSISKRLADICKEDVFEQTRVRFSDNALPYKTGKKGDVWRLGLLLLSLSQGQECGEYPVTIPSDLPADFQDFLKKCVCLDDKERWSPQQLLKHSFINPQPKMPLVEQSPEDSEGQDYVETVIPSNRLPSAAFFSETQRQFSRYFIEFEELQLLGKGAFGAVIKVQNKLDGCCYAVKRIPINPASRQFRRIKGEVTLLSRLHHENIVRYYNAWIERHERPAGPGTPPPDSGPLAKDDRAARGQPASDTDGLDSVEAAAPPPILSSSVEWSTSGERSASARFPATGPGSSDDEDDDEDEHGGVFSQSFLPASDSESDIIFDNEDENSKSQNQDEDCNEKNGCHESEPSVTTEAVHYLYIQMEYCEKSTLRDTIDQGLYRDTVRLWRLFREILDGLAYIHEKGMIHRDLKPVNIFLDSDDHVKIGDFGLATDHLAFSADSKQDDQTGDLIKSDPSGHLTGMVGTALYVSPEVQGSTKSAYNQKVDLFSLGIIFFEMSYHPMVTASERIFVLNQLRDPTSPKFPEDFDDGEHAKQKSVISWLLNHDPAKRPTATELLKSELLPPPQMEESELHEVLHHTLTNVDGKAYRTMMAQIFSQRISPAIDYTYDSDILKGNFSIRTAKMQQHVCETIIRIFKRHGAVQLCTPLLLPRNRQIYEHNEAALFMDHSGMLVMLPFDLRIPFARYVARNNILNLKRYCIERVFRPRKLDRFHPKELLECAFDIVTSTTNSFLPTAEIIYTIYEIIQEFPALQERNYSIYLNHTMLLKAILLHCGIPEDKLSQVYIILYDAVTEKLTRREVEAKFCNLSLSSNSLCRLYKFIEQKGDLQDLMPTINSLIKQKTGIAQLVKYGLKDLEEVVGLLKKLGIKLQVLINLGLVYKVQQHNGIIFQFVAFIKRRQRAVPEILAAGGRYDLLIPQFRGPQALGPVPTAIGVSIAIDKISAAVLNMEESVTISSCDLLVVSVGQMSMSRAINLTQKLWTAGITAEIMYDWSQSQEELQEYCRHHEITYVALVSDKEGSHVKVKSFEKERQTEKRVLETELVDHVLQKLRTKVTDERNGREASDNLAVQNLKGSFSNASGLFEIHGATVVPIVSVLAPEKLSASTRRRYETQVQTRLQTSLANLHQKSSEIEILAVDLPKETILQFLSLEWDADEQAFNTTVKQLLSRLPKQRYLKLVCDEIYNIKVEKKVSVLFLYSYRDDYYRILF

One assay addresses GCN2 kinase (Homo sapiens (Human), UniProt Q9P2K8). The assay can be described thus: GCN2 Enzyme Inhibition Assay (Transcreener ADP2 fluorescence polarization). Format: biochemical. To be noted: 280 μM ATP, 200 μM (RS)7 peptide, 4 nM GCN2, 25° C. On the procedure:
Compounds were screened for their ability to inhibit GCN2 kinase activity using a Transcreener® ADP^2 fluorescence polarization assay that detects ADP levels (BellBrook Labs, WI). Assays were carried out in a buffer consisting of 25 mM Tris-HCl (pH 7.5), 50 mM NaCl, 10 mM MgCl2 and 1 mM DTT. […] Assays were carried out at 25° C. in the presence of a (typical) final concentration of 4 nM GCN2 kinase. An assay buffer containing GCN2 kinase and (RS)7 was prepared. […] The plate was incubated for 10 minutes at 25° C. prior to the addition of 4.7 μL of ATP stock buffer to initiate the enzyme reaction. The reaction was allowed to proceed for 1 hour at 25° C., prior to the addition of 10 μL detection buffer (consisting of appropriate concentrations of ADP^2 antibody and ADP Alexa633 tracer in 1× stop and detect buffer as supplied by BellBrook Labs). […] Percentage inhibition of enzyme activity was then calculated at each compound dose. IC50 and Ki(app) (using known assay and kinetic parameters) values were calculated from percentage inhibition data using a non-linear, tight-binding algorithm. All data analysis was undertaken using the Screener® software package (Genedata, Switzerland).
In the case of `Cc1[nH]ncc1[C@H]1CN(c2ccnc(-c3cnc4cc(F)c(Cl)cn34)n2)C[C@H](C)O1` [I-539, (2S,6S)-4-(2-(6-chloro-7-fluoroimidazo[1,2-a]pyridin-3-yl)pyrimidin-4-yl)-2-methyl-6-(5-methyl-1H-pyrazol-4-yl)morpholine], the 50% inhibitory concentration (IC50) – broadly, the concentration needed to halve the response being measured – fell in the range of 10 to 100 nM.

Turning to `C[C@@H]1CN(c2ccnc(-c3cnc4ccc(C(F)(F)F)cn34)n2)C[C@H](C)N1CC(F)(F)F` [I-410, 3-(4-(cis-3,5-dimethyl-4-(2,2,2-trifluoroethyl)piperazin-1-yl)pyrimidin-2-yl)-6-(trifluoromethyl)imidazo[1,2-a]pyridine], the IC50 fell in the range of 100 to 1000 nM.

In the case of `Cc1noc([C@@H]2CN(c3ccnc(-c4cnc5cc(F)c(C6CC6)cn45)n3)C[C@H](C)O2)n1` [I-341, (2S,6S)-4-(2-(6-cyclopropyl-7-fluoroimidazo[1,2-a]pyridin-3-yl)pyrimidin-4-yl)-2-methyl-6-(3-methyl-1,2,4-oxadiazol-5-yl)morpholine], the IC50 lay within 100 to 1000 nM.

The compound `CC(C)(O)C(=O)N1CCN(c2ccnc(-c3cnc4ccc(C(F)(F)F)cn34)n2)CC1c1cn[nH]c1` (stereo not shown) [I-514, 1-(2-(1H-pyrazol-4-yl)-4-(2-(6-(trifluoromethyl)imidazo[1,2-a]pyridin-3-yl)pyrimidin-4-yl)piperazin-1-yl)-2-hydroxy-2-methylpropan-1-one] showed an IC50 of 100 to 1000 nM.

`NC(=O)CC1CCCN(c2ccnc(-c3cnc4ccc(Cl)cn34)n2)C1` (stereo not shown) [I-162, 2-(1-(2-(6-chloroimidazo[1,2-a]pyridin-3-yl)pyrimidin-4-yl)piperidin-3-yl)acetamide] displayed an IC50 of 10 to 100 nM.

`O=C(O)C1(O)CCCN(c2ccnc(-c3cnc4ccc(C(F)(F)F)cn34)n2)C1` (stereo not shown) [I-214, 3-hydroxy-1-(2-(6-(trifluoromethyl)imidazo[1,2-a]pyridin-3-yl)pyrimidin-4-yl)piperidine-3-carboxylic acid] displayed an IC50 of 100 to 1000 nM.

As to `C[C@H]1CN(c2ccnc(-c3cnc4ccc(C(F)(F)F)cn34)n2)C[C@H](C(N)=O)O1` [I-129, (2R,6 S)-6-methyl-4-(2-(6-(trifluoromethyl)imidazo[1,2-a]pyridin-3-yl)pyrimidin-4-yl)morpholine-2-carboxamide], the half-maximal inhibitory concentration (IC50) was 10 to 100 nM.

The compound `C[C@H]1[C@@H](c2cn[nH]c2)NCCN1c1ccnc(-c2cnc3ccc(C(F)(F)F)cn23)n1` [I-534, 3-(4-((2 S,3R)-2-methyl-3-(1H-pyrazol-4-yl)piperazin-1-yl)pyrimidin-2-yl)-6-(trifluoromethyl)imidazo[1,2-a]pyridine] gave an IC50 of 100 to 1000 nM.

`C[C@@H]1CN(c2ccnc(-c3cnc4ccc(C(F)(F)F)cn34)n2)C[C@H](C)N1C(=O)c1cc2n(n1)CCOC2` [I-513, (6,7-dihydro-4H-pyrazolo[5,1-c][1,4]oxazin-2-yl)(cis-2,6-dimethyl-4-(2-(6-(trifluoromethyl)imidazo[1,2-a]pyridin-3-yl)pyrimidin-4-yl)piperazin-1-yl)methanone] gave an IC50 of 100 to 1000 nM.

`CC1(C)CN(c2ccnc(-c3cnc4ccc(C(F)(F)F)cn34)n2)CCN1CC(F)(F)F` [I-333, 3-(4-(3,3-dimethyl-4-(2,2,2-trifluoroethyl)piperazin-1-yl)pyrimidin-2-yl)-6-(trifluoromethyl)imidazo[1,2-a]pyridine] came in with an IC50 of 100 to 1000 nM.

Regarding `Cc1nn(C)cc1[C@@H]1C[C@@H](C)CN(c2nccc(-c3cnc4ccc(C(F)(F)F)cn34)n2)C1` [I-140, 3-(2-((3S,5R)-3-(1,3-dimethyl-1H-pyrazol-4-yl)-5-methylpiperidin-1-yl)pyrimidin-4-yl)-6-(trifluoromethyl)imidazo[1,2-a]pyridine], the half-maximal inhibitory concentration (IC50) fell in the range of 100 to 1000 nM.

As for `Cc1nn(C)cc1C(=O)N1CCN(c2ccnc(-c3cnc4ccc(C(F)(F)F)cn34)n2)C[C@H]1C` [I-479, (R)-(1,3-dimethyl-1H-pyrazol-4-yl)(2-methyl-4-(2-(6-(trifluoromethyl)imidazo[1,2-a]pyridin-3-yl)pyrimidin-4-yl)piperazin-1-yl)methanone], the half-inhibitory concentration (IC50) is 100 to 1000 nM.

As to `COc1cc(C(=O)N2CCN(c3ccnc(-c4cnc5ccc(C(F)(F)F)cn45)n3)CC2c2cn[nH]c2)ccn1` (stereo not shown) [I-452, (2-(1H-pyrazol-4-yl)-4-(2-(6-(trifluoromethyl)imidazo[1,2-a]pyridin-3-yl)pyrimidin-4-yl)piperazin-1-yl)(2-methoxypyridin-4-yl)methanone], the half-maximal inhibitory concentration (IC50) lay in the range of 100 to 1000 nM.

`CS(=O)(=O)NCC1C[C@@H]2CC[C@H]1N(c1ccnc(-c3cnc4ccc(C(F)F)cn34)n1)C2` (stereo partly drawn) [I-394, N-(((1R,4S)-2-(2-(6-(difluoromethyl)imidazo[1,2-a]pyridin-3-yl)pyrimidin-4-yl)-2-azabicyclo[2.2.2]octan-6-yl)methyl)methanesulfonamide] showed an IC50 of 100 to 1000 nM.

Consider `N#CC1(C(=O)N2CCN(c3ccnc(-c4cnc5ccc(C(F)(F)F)cn45)n3)CC2c2cn[nH]c2)CC1` (stereo not shown) [I-432, 1-(2-(1H-pyrazol-4-yl)-4-(2-(6-(trifluoromethyl)imidazo[1,2-a]pyridin-3-yl)pyrimidin-4-yl)piperazine-1-carbonyl)cyclopropane-1-carbonitrile], for which the IC50 fell in the range of 10 to 100 nM.

Regarding `N#CC1(C(=O)N2CCN(c3nccc(-c4cnc5ccc(C(F)(F)F)cn45)n3)C[C@@H]2c2cn[nH]c2)CC1` (stereo in doubt) [I-551, 1-(2-(1H-pyrazol-4-yl)-4-(4-(6-(trifluoromethyl)imidazo[1,2-a]pyridin-3-yl)pyrimidin-2-yl)piperazine-1-carbonyl)cyclopropane-1-carbonitrile], the IC50 fell in the range of 10 to 100 nM.

Compound `Cc1[nH]ncc1[C@H]1[C@H](C)N(c2ccnc(-c3cnc4ccc(C(F)(F)F)cn34)n2)CCN1C1COC1` [I-367] gave a half-maximal inhibitory concentration (IC50) of 100 to 1000 nM.

Regarding `N#CC1(C(=O)n2cc([C@@H]3CN(c4ccnc(-c5cnc6ccc(C(F)(F)F)cn56)n4)CCN3)cn2)CC1` [I-433, (R)-1-(4-(4-(2-(6-(trifluoromethyl)imidazo[1,2-a]pyridin-3-yl)pyrimidin-4-yl)piperazin-2-yl)-1H-pyrazole-1-carbonyl)cyclopropane-1-carbonitrile], the IC50 is 10 to 100 nM.

Turning to `CC1C(C(N)=O)NCCN1c1ccnc(-c2cnc3ccc(C(F)F)cn23)n1` (stereo not shown) [I-378, 4-(2-(6-(difluoromethyl)imidazo[1,2-a]pyridin-3-yl)pyrimidin-4-yl)-3-methylpiperazine-2-carboxamide], the IC50 lay in the range of 10 to 100 nM.

The compound `Cc1noc([C@H]2CN(c3ccnc(-c4cnc5ccc(C(F)F)cn45)n3)C[C@@H](C)O2)n1` [I-375, (2R,6R)-4-(2-(6-(difluoromethyl)imidazo[1,2-a]pyridin-3-yl)pyrimidin-4-yl)-2-methyl-6-(3-methyl-1,2,4-oxadiazol-5-yl)morpholine] registered a 50% inhibitory concentration (IC50) of 10 to 100 nM.

Turning to `Cc1cc(-c2cnc3ccc(Cl)cn23)nc(N2C[C@H](C)C[C@H](N=S(C)(C)=O)C2)n1` [I-168, (((3 S,5R)-1-(4-(6-chloroimidazo[1,2-a]pyridin-3-yl)-6-methylpyrimidin-2-yl)-5-methylpiperidin-3-yl)imino)dimethyl-λ6-sulfanone], the IC50 was in the range of 10 to 100 nM.

For the compound `NC(=O)[C@@H]1CCCN(c2ccnc(-c3cnc4ccc(Cl)cn34)n2)C1` [I-164, (R)-1-(2-(6-chloroimidazo[1,2-a]pyridin-3-yl)pyrimidin-4-yl)piperidine-3-carboxamide], the IC50 is 10 to 100 nM.

As to `C[C@@H]1CN(c2ccnc(-c3cnc4ccc(C(F)(F)F)cn34)n2)C[C@H](C)N1CC1CCOCC1` [I-462, 3-(4-(cis-3,5-dimethyl-4-((tetrahydro-2H-pyran-4-yl)methyl)piperazin-1-yl)pyrimidin-2-yl)-6-(trifluoromethyl)imidazo[1,2-a]pyridine], the IC50 is 100 to 1000 nM.

The compound `C[C@H]1[C@@H](CNS(C)(=O)=O)NCCN1c1ccnc(-c2cnc3ccc(C(F)(F)F)cn23)n1` [I-436, N-(((2R,3 S)-3-methyl-4-(2-(6-(trifluoromethyl)imidazo[1,2-a]pyridin-3-yl)pyrimidin-4-yl)piperazin-2-yl)methyl)methanesulfonamide] registered an IC50 of 10 to 100 nM.

Still in this assay, the particulars now being: Ki(app); 280 μM ATP, 200 μM (RS)7 peptide, 4 nM GCN2, 25° C.
`Cn1cc(NC(=O)[C@H]2CCCN(c3ccnc(-c4cnc5cc(F)c(Cl)cn45)n3)C2)cn1` [I-77, (S)-1-[2-(6-Chloro-7-fluoro-imidazo[1,2-a]pyridin-3-yl)-pyrimidin-4-yl]-piperidine-3-carboxylic acid (1-methyl-1H-pyrazol-4-yl)-amide] gave a Ki of 100 to 1000 nM.

With `CC1CC(C(N)=O)C(C)N(c2ccnc(-c3cnc4cc(F)c(Cl)cn34)n2)C1` (stereo not shown) [I-52, 1-[2-(6-Chloro-7-fluoro-imidazo[1,2-a]pyridin-3-yl)pyrimidin-4-yl]-2,5-dimethyl-piperidine-3-carboxamide], the Ki is under 10 nM.

On to `Cc1nnc([C@@H]2CN(c3ccnc(-c4cnc5ccc(C#N)cn45)n3)C[C@H](C)O2)o1` (relative stereo) [I-94, 3-{4-[cis-2-methyl-6-(5-methyl-1,3,4-oxadiazol-2-yl)morpholin-4-yl]pyrimidin-2-yl}imidazo[1,2-a]pyridine-6-carbonitrile], for which the Ki fell in the range of 100 to 1000 nM.

Compound `O=C1OCCC2CN(c3ccnc(-c4cnc5ccc(Cl)cn45)n3)CCN12` (stereo not shown) [I-98, 2-(2-{6-chloroimidazo[1,2-a]pyridin-3-yl}pyrimidin-4-yl)-octahydropyrazino[1,2-c][1,3]oxazin-6-one] displayed a Ki of 10 to 100 nM.
